Consider six molecules from the NIST ThermoML archive (doi:10.1021/je8006265).

For this data set the following is noted: 298.15 K, 101.33 kPa.

± gives the expanded uncertainty stated by the source.

Usually mass density stands for mass per unit of volume. On to `c1ccc2[nH]ccc2c1` [1H-indole], for which, under “Crystal”, the mass density is on record as 1216.68 ± 1.9 kg/m3.
On to `Nc1ccccc1` [aniline], for which, where the note is “Liquid”, the mass density stood at 1017.42 ± 0.2 kg/m3.
Same read-out and setting: to `CCCCCCCCCCCCCCCC` [hexadecane] belongs 773.19 ± 0.32 kg/m3; to `c1ccncc1` [pyridine], 978.25 ± 0.27 kg/m3; to `c1cc[nH]c1` [pyrrole], 965.9 ± 2.9 kg/m3.
Still for that read-out and setting: to `c1ccc2ncccc2c1` [quinoline] belongs 1089.45 ± 0.31 kg/m3.
